Data reported in PubChem BioAssay (NCI).
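Interpolation was linear, between the two tested concentrations surrounding the appropriate level; five concentrations were tested over 48 hours in 96-well plates. TGI is the concentration that stops growth completely.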

What was measured:
Experiment in all cases: NCI-60 cell line screen, 48 h
BT-549 breast = system: BT-549 breast
T-47D breast = system: T-47D breast
DLD-1 colon = system: DLD-1 colon
DMS 273 small cell lung = system: DMS 273 small cell lung
KM20L2 colon = system: KM20L2 colon
LXFL 529 NSCLC = system: LXFL 529 NSCLC
M19-MEL melanoma = system: M19-MEL melanoma
SNB-78 CNS = system: SNB-78 CNS
XF 498 CNS = system: XF 498 CNS
RXF-631 renal = system: RXF-631 renal
DMS 114 small cell lung = system: DMS 114 small cell lung
HOP-18 NSCLC = system: HOP-18 NSCLC

## CN1C(=O)C(C(=O)Nc2ccccn2)C2C[C@@]1(C)Oc1ccccc12 (stereo partly drawn)
BT-549 breast
  TGI: > 100 µM

## CC(C)(C)OC(=O)[C@@H]1ON2O[C@H](OC3CCCC3(c3ccccc3)c3ccccc3)C[C@H]3OC(=O)[C@@H]1[C@H]32 (stereo partly drawn)
BT-549 breast
  TGI: > 100 µM
T-47D breast
  TGI: > 100 µM

## CC(=O)Oc1c2ccsc2c(OC(C)=O)c2ccsc12
BT-549 breast
  TGI: 1.86 µM
T-47D breast
  TGI: 4.09 µM

## COc1cc([C@@H]2c3cc4c(cc3[C@@H](OC(=O)c3cccc(N)c3)C3COC(=O)[C@@H]32)OCO4)cc(OC)c1O (stereo partly drawn)
DLD-1 colon
  TGI: > 100 µM
DMS 273 small cell lung
  TGI: > 100 µM
KM20L2 colon
  TGI: 26.8 µM
LXFL 529 NSCLC
  TGI: 51 µM
M19-MEL melanoma
  TGI: > 100 µM
SNB-78 CNS
  TGI: > 100 µM
XF 498 CNS
  TGI: 35 µM

## COc1c(C(C)(C)C)cc(CC2C(=O)C=CC2=O)cc1C(C)(C)C
BT-549 breast
  TGI: 41.1 µM
T-47D breast
  TGI: 12.7 µM

## O=C1OCC(c2ccc(Cl)cc2)=C1Cl
BT-549 breast
  TGI: 53.9 µM
T-47D breast
  TGI: > 100 µM

## CCOC(=O)OC1C(Br)C2CCC1(C)C2(C)C (stereo not drawn)
BT-549 breast
  TGI: 31.3 µM
T-47D breast
  TGI: 30.3 µM

## COC(=O)Cc1c([C@H]2[C@H](CC(=O)OC)c3ccccc3N2S(=O)(=O)c2ccc(C)cc2)[nH]c2ccccc12
BT-549 breast
  TGI: > 100 µM

## N#CC(C#N)=c1c2ccccc2c(=C(C#N)C#N)c2ccccc12
BT-549 breast
  TGI: 65 µM

## Cc1ccc(N=C2N=C(N3CC(C)OC(C)C3)c3ccccc32)cc1 (stereo not drawn)
DLD-1 colon
  TGI: > 100 µM
DMS 273 small cell lung
  TGI: 77.1 µM
KM20L2 colon
  TGI: > 100 µM
LXFL 529 NSCLC
  TGI: 57.6 µM
M19-MEL melanoma
  TGI: > 100 µM
RXF-631 renal
  TGI: > 100 µM
SNB-78 CNS
  TGI: > 100 µM
XF 498 CNS
  TGI: 64.5 µM

## c1ccc(-c2c(-c3cccs3)[nH]c(-c3cccs3)c2-c2ccccn2)nc1
BT-549 breast
  TGI: 41.5 µM
T-47D breast
  TGI: 94.9 µM

## CSc1ccc(NC(=O)C2c3[nH]c4ccccc4c3C3CCC(C(C)(C)C)CC3C2C(=O)O)cc1 (stereo not drawn)
DLD-1 colon
  TGI: 54.6 µM
DMS 114 small cell lung
  TGI: 63.4 µM
DMS 273 small cell lung
  TGI: 30 µM
HOP-18 NSCLC
  TGI: 35.9 µM
KM20L2 colon
  TGI: 32.6 µM
LXFL 529 NSCLC
  TGI: 31.8 µM
M19-MEL melanoma
  TGI: 57.3 µM
SNB-78 CNS
  TGI: 53.2 µM
XF 498 CNS
  TGI: 39.7 µM

## C=CCCCN1CCCC(C)C1=S (stereo not drawn)
DLD-1 colon
  TGI: > 100 µM
DMS 114 small cell lung
  TGI: > 100 µM
DMS 273 small cell lung
  TGI: > 100 µM
HOP-18 NSCLC
  TGI: > 100 µM
KM20L2 colon
  TGI: > 100 µM
M19-MEL melanoma
  TGI: > 100 µM
RXF-631 renal
  TGI: > 100 µM
XF 498 CNS
  TGI: > 100 µM

## COc1ccc(CNc2nc(NCc3ccc(OC)cc3)nc(NC3CCCC3)n2)cc1
BT-549 breast
  TGI: > 31.8 µM
T-47D breast
  TGI: > 100 µM

## N#Cc1ccc(Oc2ccccc2)cc1C#N
DLD-1 colon
  TGI: > 100 µM
DMS 114 small cell lung
  TGI: 59.1 µM
DMS 273 small cell lung
  TGI: 34.5 µM
HOP-18 NSCLC
  TGI: > 100 µM
KM20L2 colon
  TGI: > 100 µM
LXFL 529 NSCLC
  TGI: > 100 µM
M19-MEL melanoma
  TGI: > 100 µM
SNB-78 CNS
  TGI: > 100 µM
XF 498 CNS
  TGI: > 100 µM

## O=C1c2ccccc2C(=O)c2c(NC(=O)C3CC3)ccc(NC(=O)C3CC3)c21
BT-549 breast
  TGI: > 100 µM
T-47D breast
  TGI: > 100 µM

## COC1=C2CC(C)CC(OC)C(OC(=O)CN)[C@H](C)/C=C(\C)C(OC(N)=O)C(OC)/C=C\C=C(/C)C(=O)NC(=CC1=O)C2=O (stereo partly drawn)
BT-549 breast
  TGI: 14.2 µM
T-47D breast
  TGI: 1.32 µM

## O=[N+]([O-])c1ccc2sc(/C=N/c3ccccn3)cc2c1
BT-549 breast
  TGI: > 100 µM
T-47D breast
  TGI: 74 µM

## Cc1nc2cc3ccccc3cc2[nH]c1=O
BT-549 breast
  TGI: > 100 µM
T-47D breast
  TGI: > 100 µM

## CO[C@@]12C[C@@H](C)[C@]34O[C@H]3C[C@]3(C)O[C@]43CC1=C(C)C(=O)O2
BT-549 breast
  TGI: > 100 µM
T-47D breast
  TGI: > 100 µM

## CCOC(=O)/C(C(=S)NCc1ccccc1)=C(/N)N1CCCC1
T-47D breast
  TGI: > 100 µM

## COc1ccc(N=Nc2ccc3oc(=O)c(C(=O)Nc4ccccc4C)cc3c2)cc1
T-47D breast
  TGI: > 10 µM

## CCC/C(Cl)=N/OC(NC(=O)OCC)(C(F)(F)F)C(F)(F)F
T-47D breast
  TGI: 66.9 µM

## COC(=O)c1cc(O)c(O)c(O)c1-c1c(O)c(O)c(O)c(SC[C@H](NC(=O)OCc2ccccc2)C(=O)OCc2ccccc2)c1C(=O)OC
BT-549 breast
  TGI: > 100 µM
T-47D breast
  TGI: > 100 µM

## Nc1cc2ncnn2c(SCC(=O)N/N=C/C(Br)=C\c2ccccc2)n1
BT-549 breast
  TGI: 44.1 µM
T-47D breast
  TGI: 9.35 µM

## CCOC(=O)CSC1NC(C(=O)OC)CC1OC (stereo not drawn)
BT-549 breast
  TGI: > 100 µM

## C=CCOCn1cc(F)c(=O)[nH]c1=O
BT-549 breast
  TGI: > 100 µM
T-47D breast
  TGI: > 100 µM

## CS(=O)(=O)OCCCSCCSCCCOS(C)(=O)=O
BT-549 breast
  TGI: > 100 µM
T-47D breast
  TGI: > 100 µM

## CCS(=O)c1c2cc(OC)ccc2nc2ccc(OC)cc12 (stereo not drawn)
BT-549 breast
  TGI: 31.9 µM
T-47D breast
  TGI: 5.85 µM

## CC(C)OC(=O)[C@H]1ON2O[C@H](O[C@@H]3CCCC[C@H]3c3ccccc3)C([Si](C)(C)c3ccccc3)[C@H]3OC(=O)[C@@H]1C32 (stereo partly drawn)
BT-549 breast
  TGI: > 100 µM
T-47D breast
  TGI: > 100 µM

## c1ccc2c(c1)Cc1c(Cc3csc4ccccc34)ccc3cccc-2c13
DLD-1 colon
  TGI: > 100 µM
DMS 114 small cell lung
  TGI: > 100 µM
DMS 273 small cell lung
  TGI: > 100 µM
KM20L2 colon
  TGI: > 100 µM
LXFL 529 NSCLC
  TGI: > 100 µM
M19-MEL melanoma
  TGI: > 100 µM
RXF-631 renal
  TGI: > 100 µM
SNB-78 CNS
  TGI: > 100 µM
XF 498 CNS
  TGI: > 100 µM

## CC1(C)Cc2c(oc3ncnc(N)c23)CS1
DLD-1 colon
  TGI: > 100 µM
DMS 114 small cell lung
  TGI: > 100 µM
DMS 273 small cell lung
  TGI: > 100 µM
KM20L2 colon
  TGI: > 100 µM
LXFL 529 NSCLC
  TGI: > 100 µM
M19-MEL melanoma
  TGI: > 100 µM
RXF-631 renal
  TGI: > 100 µM
SNB-78 CNS
  TGI: > 100 µM
XF 498 CNS
  TGI: > 100 µM

## Cc1cc(S(=O)(=O)Nc2nnc3ccccn23)c(S)cc1Cl
BT-549 breast
  TGI: > 100 µM
T-47D breast
  TGI: > 100 µM

## COc1ccccc1/C=C1\S/C(=N/Nc2nc(C)c(C(C)=O)s2)NC1=O
T-47D breast
  TGI: 72.8 µM

## Cc1ccc(S(=O)(=O)N/N=C2\CCC3(O)CC2(C)CCC2C3CC2(C)C)cc1 (stereo not drawn)
BT-549 breast
  TGI: > 100 µM
T-47D breast
  TGI: > 100 µM

## COC(=O)c1c(O)ccc2c1c1c(n2Cc2ccccc2OC)C(=O)c2ccccc2C1=O
BT-549 breast
  TGI: 32.1 µM
T-47D breast
  TGI: 9.58 µM

## O=C(CC1C(=O)Nc2ccccc2S1(=O)=O)Nc1ccc(Cl)cc1 (stereo not drawn)
DLD-1 colon
  TGI: > 100 µM
DMS 114 small cell lung
  TGI: 55.7 µM
DMS 273 small cell lung
  TGI: 45.6 µM
KM20L2 colon
  TGI: > 100 µM
LXFL 529 NSCLC
  TGI: 78.2 µM
M19-MEL melanoma
  TGI: 61.9 µM
RXF-631 renal
  TGI: > 100 µM
SNB-78 CNS
  TGI: 93.8 µM
XF 498 CNS
  TGI: 30.5 µM

## COc1ccc(OC)c(/C=C2\CCc3ccccc3C2=O)c1
DLD-1 colon
  TGI: 22.8 µM
DMS 114 small cell lung
  TGI: 5.21 µM
DMS 273 small cell lung
  TGI: 12.8 µM
HOP-18 NSCLC
  TGI: 57.1 µM
KM20L2 colon
  TGI: 9.62 µM
LXFL 529 NSCLC
  TGI: 31.8 µM
M19-MEL melanoma
  TGI: 23.5 µM
XF 498 CNS
  TGI: 11 µM

## Nc1ncc(C=O)c(NCC2(CO)CCC2)n1
T-47D breast
  TGI: 88.9 µM

## CN(C)CCCNC(=O)c1cc(NS(=O)(=O)c2ccc3c(c2)C(=O)c2ccccc2C3=O)cn1C
BT-549 breast
  TGI: 53.9 µM
T-47D breast
  TGI: > 100 µM

## CO[C@]12S[C@@H]3CCCC[C@@]31C(C)(C)C(=O)N2c1ccccc1
BT-549 breast
  TGI: > 100 µM
T-47D breast
  TGI: > 100 µM

## CCc1c(CNC2=NCCN2)c(CC)c(CNC2=NCCN2)c(CC)c1CNC1=NCCN1
BT-549 breast
  TGI: > 100 µM
T-47D breast
  TGI: > 100 µM
